According to patent EP1336402B1, “Association of diguanosine tetraphosphate and nicotinic derivatives used for the treatment of capillary disorders, in particular the treatment of hair loss” (Pierre Fabre Dermo-Cosmetique, priority 2002, dated 2003):

How the values were obtained:
[1] = tested on: co-culture de cellules endothéliales humaines et de fibroblastes humains; test: in vitro angiogenesis model: co-culture, tubule length quantified by image analysis after 12 days; type: cell-based; conditions: 12 days of culture, untreated control 4150
Description: Par ailleurs, la composante vasculaire jouant un rôle fondamental dans la croissance du follicule pileux, l'influence des principes actifs précédemment décrits sur ce paramètre a été évaluée sur un modèle d'angiogénèse in vitro.
Le modèle repose sur une co-culture de cellules endothéliales humaines et de fibroblastes humains (kit angiogénèse Bioprédic International), qui est réalisée en présence ou pas des actifs à tester.
Les cellules endothéliales migrent à travers la matrice pour former des structures tubulaires, qui sont quantifiées au bout de 12 jours de culture. La quantification de la longueur des capillaires est réalisée par analyse d'image.

[2] = tested on: cellules de la papille dermique du follicule pileux; test: cell metabolism of dermal papilla cells in monolayer culture; type: cell-based; conditions: for augmentation du métabolisme cellulaire: culture mono-couche, concentrations not given
Description: L'intérêt de l'association de ces deux actifs a été confirmé sur d'autres modèles cellulaires, notamment sur le métabolisme des cellules de la papille dermique du follicule pileux en culture mono-couche, où l'association GP4G + nicotinate de tocophérol a montré une augmentation de + 26,2 % du métabolisme cellulaire, supérieure à celle des actifs testés seuls (12,6 % et 18,3 % respectivement).

`Nc1cc(N2CCCCC2)nc(N)[n+]1[O-]` [Minoxidil, reference compound] was tested, and the “LONGUEUR DES TUBULES PAR CHAMP DE COMPTAGE Moyenne” value ([1]; Minoxidil 25 µg/ml) was 7662.

For `Cc1c(C)c2c(c(C)c1OC(=O)c1cccnc1)CCC(C)(CCCC(C)CCCC(C)CCCC(C)C)O2` (stereo not drawn) [Nicotinate de tocophérol, Alpha Tocophéryl Nicotinate], the “augmentation du métabolisme cellulaire” value [2] was 18,3%, the “LONGUEUR DES TUBULES PAR CHAMP DE COMPTAGE Moyenne” value ([1]; 1 µg/ml) was 4015 and the “LONGUEUR DES TUBULES PAR CHAMP DE COMPTAGE Moyenne” value ([1]; 10 µg/ml) was 4634. The “LONGUEUR DES TUBULES PAR CHAMP DE COMPTAGE Moyenne” value ([1]; 20 µg/ml) was 5363.

In the case of `Cc1ccc(C(=O)Nc2ccc(S(=O)(=O)O)c3cc(S(=O)(=O)O)cc(S(=O)(=O)O)c23)cc1NC(=O)c1cccc(NC(=O)Nc2cccc(C(=O)Nc3cc(C(=O)Nc4ccc(S(=O)(=O)O)c5cc(S(=O)(=O)O)cc(S(=O)(=O)O)c45)ccc3C)c2)c1` [Suramine, reference compound], the “LONGUEUR DES TUBULES PAR CHAMP DE COMPTAGE Moyenne” value ([1]; Suramine 20 µM) was 3072.

diguanosine tétraphosphate [GP4G] was tested, and the “augmentation du métabolisme cellulaire” value [2] was 12,6%, the “métabolisme des cellules de la papille dermique (CPD)” value ([2]; en présence de GP4G, result in words) was “augmentation fonction-dose” and the “LONGUEUR DES TUBULES PAR CHAMP DE COMPTAGE Moyenne” value ([1]; GP4G 0.01 %) was 3814. The “LONGUEUR DES TUBULES PAR CHAMP DE COMPTAGE Moyenne” value ([1]; GP4G 0.1 %) was 4040 and the “LONGUEUR DES TUBULES PAR CHAMP DE COMPTAGE Moyenne” value ([1]; GP4G 1.0 %) was 6803.
